Consider three compounds from patent US20140010806A1, “Treatment of Ocular Diseases” (priority 2012, published 2014).

Data set [1] relates to NF-κB. Briefly: Kinetic analysis of NF-kB inhibition in vivo after LPS, ELISA of NF-κB in spleen cell nuclei. On the set-up: species or system mice. The settings on record: about 40 mg/kg i.p. 24 hours before LPS. Here is the method:
Kinetic analysis of NF-kB inhibition in vivo. […] In this study, mice were treated with 17α-ethynylandrost-5-ene-3β,7β,17β-triol (about 40 mg/kg, about 1.2 mg/animal) by intraperitoneal injection of a solution (not a suspension) of the compound in vehicle (120 μL vehicle; 30% sulfobutylether-cyclodextrin in water). The drug was injected 24 hours before intraperitoneal injection of bacterial LPS (about an LD50/24). The study used two groups of 12 animals, vehicle control or drug administered 24 hours before LPS challenge. Spleens were harvested from 3 animals from both groups just before LPS challenge and at 1.5, 2.0 and 2.5 hours after administration of LPS. Spleen cells were harvested and the level of activated NF-κB was measured by assay of NF-κB in nuclei.
Maximum NF-κB activation after LPS administration occurred at 1.5 hours in the vehicle controls, which was 4-fold increased over the pre-LPS level of activated NF-κB. The values for the vehicle control and drug treated animals are relative optical density units from ELISA measurement of NF-κB in nuclei from spleen cells.

For a further data set, the system named is MG-63 cells. Briefly: Reversal of dexamethasone effects in MG-63 osteoblast cells. The settings on record: compound at 1 nM; 7 hours with 30 nM dexamethasone. It is filed as cell-based, human. The text has this: The capacity of 17α-ethynyl-5-androstene-3β,7β,17β-triol to reverse adverse effects of glucocorticoids in bone growth was shown in the human MG-63 osteosarcoma cell line. MG-63 cells are osteoblasts, which are cells that mediate bone growth. This cell line has been used extensively to study bone biology and to characterize the biological activity of compounds for treatment of bone loss conditions (e.g., B. D. Boyan et al., J. Biol. Chem., 264(20):11879-11886, 1989; L. C. Hofbauer et al., Endocrinology, 140(10):4382-4389, 1999). Adverse toxicities associated with elevated glucocorticoid levels include a decrease in the production of IL-6 and IL-8 by osteoblasts, including the MG-63 cell line, and an increase in the expression of the 11β-hydroxysteroid dehydrogenase type 1 enzyme (11β-HSD). Increased 11β-hydroxysteroid dehydrogenase type 1 enzyme results in increased levels of endogenous glucocorticoid activity by converting endogenous cortisone to the active cortisol, which inhibits bone growth. The 11β-HSD enzyme is expressed in liver, adipose tissue, brain and bone tissues. Cortisol generated by 11β-HSD-1 contributes to osteoporosis and disorders such as stroke, neuron death, depression and Parkinson Disease. Decreases in IL-6, IL-8 and osteoprotegerin are associated with decreased bone growth by osteoblasts.

Data set [2] has as its system popliteal lymph node cells. Briefly: reporter antigen popliteal lymph node (PLN) assay, immune suppression. As to conditions: 0.1 and 1 mg/day oral gavage. It is filed as in vivo, BALB/C mice. The text has this: Analysis of immune suppression. Glucocorticoid steroids such as dexamethasone, prednisolone or hydrocortisone are typically immune suppressive and have significant toxicities associated with their use. Immune suppression was examined in a reporter antigen popliteal lymph node assay in mice essentially as previously described (C. Goebel et al., Inflamm. Res., 45(Suppl. 2):S85-S90, 1996; R. Pieters et al., Environmental Health Perspectives 107(Suppl. 5):673-677, 1999). […] In this protocol, the vehicle was 0.1% carboxymethylcellulose, 0.9% saline, 2% tween 80 and 0.05% phenol, which contained 17α-ethynylandrost-5-ene-3β,7β,17β-triol in suspension in drug treated animals. Assessment of activity included (1) measuring suppression of numbers of total lymphocytes, antigen specific IgM, IgG1 and IgG2a antibody secreting cells (ASC) (ELISPOT assay) in popliteal lymph node cells; (2) analysis of cell surface marker (CD4, CD8, CD19, F480, CD80, CD86) expression by flow cytometry of living cells in suspension; and (3) IL-4, TNFα and IFNγ production by lymphocytes in vitro (ELISA).
Groups (n=5 per group) of specific pathogen free BALB/C mice were used. […] The results were analyzed by two-tailed Student's t-test with equal variance. […] Single cell suspensions were prepared, resuspended in 1 mL PBS-BSA (1%) and counted. Cell numbers, IL-4, IL-5 and IFNγ were measured.

Another data set deals with osteoprotegerin. In words: Osteoprotegerin levels in mice treated daily with dexamethasone. The format is in vivo. As to conditions: vehicle, dexamethasone 10 μg/day and compound at 4 mg/kg/day; 23 days; p<0.05. Here is the method:
Osteoprotegerin levels in mice that were treated with vehicle and dexamethasone at 10 μg/day (positive control group) had 3.3 pmol/L osteoprotegerin, while animals treated with vehicle, dexamethasone and 17α-ethynyl-5-androstene-3β,7β,17β-triol at 4 mg/kg/day had 6.4 pmol/L osteoprotegerin (p<0.05).

The target in data set [3] is NF-κB. In words: NF-κB-bla THP-1 β-lactamase reporter assay, activation of NF-κB by TNFα or LPS. The format is cell-based, human. The settings on record: positive control assays; 1 hour β-lactamase substrate incubation. From the text: Reduction of inflammation. Inhibition of NF-κB by 17α-ethynylandrost-5-ene-3β,7β,17β-triol in vitro. A number of compounds were used to inhibit activation of NF-κB by TNF-α or LPS in human cells in vitro. Activation of NF-κB increases expression of a number of genes that mediate inflammation. This protocol used human THP-1 cells, which are human mononuclear blood cells with a monocyte phenotype. The cell line, referred to as NF-κB-bla THP-1, contained a β-lactamase reporter gene under the control of the NF-κB response element (Invitrogen, CellSensor™, product No. K1176). In this cell line, the β-lactamase reporter gene is stably integrated in the THP-1 cells. This cell line was used to detect agonists or antagonists of the NF-κB signaling pathway. These NF-κB-bla THP-1 cells respond to the presence of tumor necrosis factor alpha (TNFα) or bacterial lipopolysaccharide (LPS) by increased expression of the β-lactamase reporter gene. The level of β-lactamase enzyme activity was measured by fluorescence resonance energy transfer ratiometric detection. […]
The NF-κB-bla THP-1 cells were maintained by passaging or feeding as needed. […] The cells were plated at 20,000 cells/well in a 384-well Black-wall, clear bottom assay plates (Costar #3712-TC low fluorescence background plates) approximately 24 hours before adding either TNFα at 10 ng/mL or LPS at 0.2 ng/mL to activate NF-κB. […]

For data set [4], the system named is experimental autoimmune encephalomyelitis (EAE). In words: PLP-induced experimental autoimmune encephalomyelitis (EAE). The settings on record: 0.1 mg q.d. po from clinical onset to day 30 post immunization. The format is in vivo, SJL mice.
A further data set has as its system EAE. As to conditions: administered at the same time the animals were immunized; cited from earlier work.

Consider `C#C[C@]1(O)CC[C@H]2[C@@H]3[C@@H](O)C=C4C[C@@H](O)CC[C@]4(C)[C@H]3CC[C@@]21C` [17α-ethynylandrost-5-ene-3β,7β,17β-triol], for which the “NF-κB in nuclei from spleen cells” value in the data set with NF-κB [1] (0 hours (just before LPS)) is given as 22 relative optical density units; in the data set on NF-κB [1] (1.5 hours after LPS), 2 relative optical density units; with NF-κB [1] (2.0 hours after LPS) it was 7 relative optical density units; in the data set on NF-κB [1] (2.5 hours after LPS), 9 relative optical density units. In the data set on MG-63 cells, the “reversal of the decrease in osteoprotegerin synthesis by MG-63 cells” value is “completely reversed”. The “immune suppression in PLN assay” value in data set [2] is given as “not immune suppressive, but was immune enhancing”. For the same compound, the “osteoprotegerin levels in mice” value in the data set with osteoprotegerin is listed as 6.4 pmol/L.

Turning to TNFα, on NF-κB [3], the “EC50 concentration for TNFα, activation of NF-κB” value is on record as 0.20 ng/mL.

For the compound `Cc1cc(C)c(/C=C2\C(=O)Nc3ccccc32)[nH]1` [SU5416, Z-3-[(2,4-dimethylpyrrol-5-yl)methylidenyl]-2-indolinone, reference compound], the “course of EAE compared to vehicle-treated mice” value in data set [4] is “ineffective”. Further, the “efficacy in EAE” value with EAE is on record as “effective”.
